From article PMC9705739, “Canagliflozin, characterized as a HDAC6 inhibitor, inhibits gastric cancer metastasis” (Frontiers in Oncology, 2022)

Target: T1, HDAC6 (Homo sapiens, UniProt Q9UBN7)
T1 sequence (Q9UBN7 1-1215): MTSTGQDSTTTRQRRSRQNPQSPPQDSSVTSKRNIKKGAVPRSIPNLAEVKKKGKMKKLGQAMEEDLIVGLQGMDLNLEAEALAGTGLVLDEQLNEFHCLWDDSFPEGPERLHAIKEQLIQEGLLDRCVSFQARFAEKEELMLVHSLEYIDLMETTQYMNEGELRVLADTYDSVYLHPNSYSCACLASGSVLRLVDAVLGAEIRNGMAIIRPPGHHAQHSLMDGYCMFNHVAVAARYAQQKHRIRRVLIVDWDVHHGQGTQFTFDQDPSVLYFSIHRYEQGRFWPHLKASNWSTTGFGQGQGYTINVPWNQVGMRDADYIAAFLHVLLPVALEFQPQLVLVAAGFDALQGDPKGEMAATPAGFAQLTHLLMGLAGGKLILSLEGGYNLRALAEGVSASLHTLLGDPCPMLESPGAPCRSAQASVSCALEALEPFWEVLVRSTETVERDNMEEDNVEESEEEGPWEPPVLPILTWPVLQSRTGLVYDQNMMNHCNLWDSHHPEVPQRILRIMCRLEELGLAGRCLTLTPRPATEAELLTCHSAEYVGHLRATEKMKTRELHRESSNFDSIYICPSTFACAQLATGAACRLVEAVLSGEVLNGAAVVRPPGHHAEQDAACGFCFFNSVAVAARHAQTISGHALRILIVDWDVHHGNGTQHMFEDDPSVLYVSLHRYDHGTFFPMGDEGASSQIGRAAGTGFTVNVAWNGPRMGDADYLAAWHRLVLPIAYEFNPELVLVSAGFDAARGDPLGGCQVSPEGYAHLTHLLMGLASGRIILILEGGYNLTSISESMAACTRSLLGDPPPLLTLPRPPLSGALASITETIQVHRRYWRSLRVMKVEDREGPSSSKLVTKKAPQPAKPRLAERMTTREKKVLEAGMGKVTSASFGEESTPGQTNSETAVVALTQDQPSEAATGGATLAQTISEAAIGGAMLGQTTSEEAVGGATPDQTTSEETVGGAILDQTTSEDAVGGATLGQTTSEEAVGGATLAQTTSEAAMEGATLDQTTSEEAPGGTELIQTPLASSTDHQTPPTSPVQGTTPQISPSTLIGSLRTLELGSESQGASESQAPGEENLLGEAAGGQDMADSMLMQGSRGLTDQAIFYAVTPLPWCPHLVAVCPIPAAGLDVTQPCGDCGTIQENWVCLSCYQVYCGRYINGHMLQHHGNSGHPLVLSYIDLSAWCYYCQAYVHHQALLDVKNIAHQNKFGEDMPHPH
Assay: SPR (Biacore T200, immobilized HDAC6); also enzymatic inhibition IC50 […] and CETSA in MGC-803 cells
Type: binding

Kd: 859 nM
SMILES: Cc1ccc([C@@H]2O[C@H](CO)[C@@H](O)[C@H](O)[C@H]2O)cc1Cc1ccc(-c2ccc(F)cc2)s1 [canagliflozin]
